{"source": "patent US20090325959A1", "about": "(priority 2008, published 2009)", "key": {"[1]": {"biological_target": "T1, Mnk2 (Homo sapiens, UniProt Q9HBH9)", "T1 construct": "purchased Upstate, Millipore Bioscience Division (KinaseProfiler service)", "assay": "Kinase panel screen (KinaseProfiler), Mnk2", "assay_type": "biochemical", "settings": "10 μM ATP", "method": "(§1) Compounds of Formulae I and II were examined for activity against a selected panel of kinases using the KinaseProfiler™ enzyme profiling services (Upstate, Millipore Bioscience Division). Percent kinase activity at 10 μM and 1 μM test compound and 10 μM ATP was determined against 40 wild-type recombinant human kinases according to Upstate's standard protocol: ASK1, BTK, CSK, c-RAF, GCK, GSK3β, IKKα, IKKβ, IRAK1, IRAK4, JNK1α1, JNK2α2, JNK3, ERK1, ERK2, MAPKAP-K2, MAPKAP-K3, MEK1, MKK4, MKK6, MKK7β, Mnk2, MSK1, PAK3, PDK1, PRAK, ROCK1, Rsk2, SAPK2a, SAPK2b, SAPK3, SAPK4, SRPK1, SRPK2, Syk, TAK1, TBK1, PI3-Kβ, PI3-Kγ, PI3-Kδ."}, "[2]": {"biological_target": "T2, IRAK1 (Homo sapiens, UniProt P51617)", "T2 construct": "purchased Upstate, Millipore Bioscience Division (KinaseProfiler service)", "assay": "Kinase panel screen (KinaseProfiler), IRAK1", "assay_type": "biochemical", "settings": "10 μM ATP", "method": "as §1"}, "[3]": {"biological_target": "T3, ROCK1 (Homo sapiens, UniProt Q13464)", "T3 construct": "purchased Upstate/Chemicon 14-601", "T3 sequence (Q13464 17-535 limits assumed)": "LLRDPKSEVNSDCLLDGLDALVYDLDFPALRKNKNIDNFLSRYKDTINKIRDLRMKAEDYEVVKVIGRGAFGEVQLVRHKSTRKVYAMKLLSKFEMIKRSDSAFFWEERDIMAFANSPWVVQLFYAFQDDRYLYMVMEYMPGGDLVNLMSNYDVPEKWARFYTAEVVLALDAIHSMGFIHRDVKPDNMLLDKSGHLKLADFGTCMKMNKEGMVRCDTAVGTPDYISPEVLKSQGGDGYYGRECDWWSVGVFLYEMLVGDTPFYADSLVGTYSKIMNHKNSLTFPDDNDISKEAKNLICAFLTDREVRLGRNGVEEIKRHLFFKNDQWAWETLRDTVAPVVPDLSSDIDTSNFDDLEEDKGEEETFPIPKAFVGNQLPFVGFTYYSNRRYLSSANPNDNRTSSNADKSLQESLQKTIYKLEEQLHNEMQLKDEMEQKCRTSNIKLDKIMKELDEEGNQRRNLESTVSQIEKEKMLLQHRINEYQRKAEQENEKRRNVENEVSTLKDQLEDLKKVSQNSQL", "assay": "Rho kinase inhibition assay (IMAP fluorescence polarization), ROCK1", "assay_type": "biochemical", "experimental": "(§2) Following the pre-incubation, 10 μM ATP was added to initiate the reaction. After 60 minutes at room temperature, Molecular Devices IMAP™ binding solution was added to bind phosphorylated substrate. After 30 minutes of incubation in the presence of the IMAP™ beads, the fluorescence polarization was read and the ratio was reported as mP. IC50 values for compounds and EC50 values for ATP were calculated using the Prism software from Graphpad."}, "[4]": {"biological_target": "T4, GCK (Homo sapiens, UniProt Q12851)", "T4 construct": "purchased Upstate, Millipore Bioscience Division (KinaseProfiler service)", "T4 sequence (Q12851 1-820)": "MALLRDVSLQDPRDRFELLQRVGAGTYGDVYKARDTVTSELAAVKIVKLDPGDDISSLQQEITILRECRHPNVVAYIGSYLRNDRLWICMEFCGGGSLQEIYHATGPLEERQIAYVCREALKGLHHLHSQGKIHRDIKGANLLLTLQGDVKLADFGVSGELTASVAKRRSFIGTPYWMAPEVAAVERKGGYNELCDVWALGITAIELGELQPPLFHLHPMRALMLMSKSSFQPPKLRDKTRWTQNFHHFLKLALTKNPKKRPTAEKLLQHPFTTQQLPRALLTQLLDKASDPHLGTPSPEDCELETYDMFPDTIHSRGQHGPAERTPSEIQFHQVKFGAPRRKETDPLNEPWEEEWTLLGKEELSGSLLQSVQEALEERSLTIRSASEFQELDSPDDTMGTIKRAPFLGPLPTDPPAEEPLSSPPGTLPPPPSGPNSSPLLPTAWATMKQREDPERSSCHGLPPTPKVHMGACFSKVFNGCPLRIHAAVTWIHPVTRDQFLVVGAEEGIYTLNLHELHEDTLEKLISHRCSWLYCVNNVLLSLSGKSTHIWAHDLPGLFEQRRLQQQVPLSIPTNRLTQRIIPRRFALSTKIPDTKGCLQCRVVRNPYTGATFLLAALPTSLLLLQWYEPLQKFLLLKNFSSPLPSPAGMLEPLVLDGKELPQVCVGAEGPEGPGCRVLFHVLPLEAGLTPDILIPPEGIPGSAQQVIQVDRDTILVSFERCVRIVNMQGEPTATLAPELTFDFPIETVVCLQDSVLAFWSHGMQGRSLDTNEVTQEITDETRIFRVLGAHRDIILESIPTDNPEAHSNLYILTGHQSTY", "assay": "Kinase panel screen (KinaseProfiler), GCK", "assay_type": "biochemical", "method": "as §1"}, "[5]": {"biological_target": "T5, p70S6K human enzyme (Homo sapiens, UniProt P23443, T412E)", "T5 construct": "purchased Upstate Chemicon 14-486", "T5 sequence (P23443 1-421 T412E limits assumed)": "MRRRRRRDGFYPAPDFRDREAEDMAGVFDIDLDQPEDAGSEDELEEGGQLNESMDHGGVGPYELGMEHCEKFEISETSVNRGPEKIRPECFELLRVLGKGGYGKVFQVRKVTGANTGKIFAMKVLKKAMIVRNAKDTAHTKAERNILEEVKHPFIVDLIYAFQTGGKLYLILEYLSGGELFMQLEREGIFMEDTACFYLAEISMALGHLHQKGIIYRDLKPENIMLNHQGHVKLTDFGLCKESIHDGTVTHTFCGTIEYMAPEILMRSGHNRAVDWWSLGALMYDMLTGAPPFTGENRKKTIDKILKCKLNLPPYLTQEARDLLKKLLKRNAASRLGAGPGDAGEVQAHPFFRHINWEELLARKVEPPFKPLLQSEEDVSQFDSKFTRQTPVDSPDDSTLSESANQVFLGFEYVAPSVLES", "assay": "p70S6K inhibition assay (IMAP FP)", "assay_type": "biochemical"}, "[6]": {"system": "human monocytes", "assay": "Human monocyte cytokine secretion assay (LPS-stimulated)", "assay_type": "cell-based", "settings": "for IC50: Monocyte, LPS-stimulated human monocytes", "experimental": "Peripheral blood from healthy human volunteers was collected and the monocytes isolated via Ficoll-paque density centrifugation. […] The cells were allowed to pre-incubate with test compound at the indicated concentration for 30 minutes (37° C., 5% CO2, humidified air); after which the supernatant was removed and media containing compound and 1 ng/mL LPS was added. Cells were allowed to incubate with compounds and LPS for 4 hours at 37° C. after which the supernatant was removed and stored at −80° C. Cytokine concentrations in the supernatant were determined using commercially available Bio-Rad Bio-plex™ kits according the manufacturer's instructions."}, "[7]": {"system": "LPS-challenged mice", "assay": "LPS-induced neutrophilia and cytokine production assay", "assay_type": "in vivo, mouse", "settings": "intratracheal administration; FIG. 11B", "experimental": "Male BALB/c mice, approximately 19 to 21 grams, were ordered from Charles River Laboratories (Raleigh, N.C.). All animals were challenged with aerosolized LPS (10 μg/ml) for 25 minutes on study day 0. LPS aerosol was generated using an Aerogen Aeroneb nebulizer and controller providing a flow of 400 μl/min and a particle size of 2-4 μm MMAD. Rolipram was administered i.p at 20 mg/kg. […] Four hours following LPS challenge, BALF was collected using a total of 3 ml of 0.9% sodium chloride containing 10% fetal calf serum. Total cell counts were determined using the Coulter Counter. For differential evaluations, BALF was centrifuged and cytospin slides prepared and stained with Hema3 stain. Manual leukocyte counts were then completed on 200 cells. The final concentration of individual leukocyte cell types per ml of BALF was determined by multiplication of the relative percentage of individual leukocytes with the total amount of cells/ml of BALF fluid. The concentration of IL-1β in the BALF samples was determined using commercially available Bio-plex kits (Bio-Rad). The analysis of cytokine levels was measured using the Bio-Plex 200 (Bio-Rad) system according to the manufacturer's instructions."}, "[8]": {"biological_target": "T6, ROCK2 (Homo sapiens, UniProt O75116)", "T6 construct": "purchased Upstate/Chemicon 14-451", "T6 sequence (O75116 11-552 limits assumed)": "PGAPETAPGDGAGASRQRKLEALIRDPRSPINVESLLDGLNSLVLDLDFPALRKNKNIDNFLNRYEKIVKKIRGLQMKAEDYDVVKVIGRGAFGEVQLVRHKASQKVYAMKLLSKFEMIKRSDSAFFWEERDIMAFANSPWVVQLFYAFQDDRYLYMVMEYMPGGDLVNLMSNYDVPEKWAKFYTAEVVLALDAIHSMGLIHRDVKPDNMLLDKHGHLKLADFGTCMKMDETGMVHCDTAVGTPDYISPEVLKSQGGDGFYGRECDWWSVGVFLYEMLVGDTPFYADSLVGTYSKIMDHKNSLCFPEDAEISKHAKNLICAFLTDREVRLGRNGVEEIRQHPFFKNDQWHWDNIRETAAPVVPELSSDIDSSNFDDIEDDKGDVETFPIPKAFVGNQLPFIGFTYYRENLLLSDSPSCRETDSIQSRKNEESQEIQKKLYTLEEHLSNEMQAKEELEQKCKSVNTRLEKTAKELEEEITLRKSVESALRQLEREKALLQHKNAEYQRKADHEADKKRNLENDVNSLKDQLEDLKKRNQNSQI", "assay": "Rho kinase inhibition assay (IMAP fluorescence polarization), ROCK2", "assay_type": "biochemical", "experimental": "as §2"}, "[9]": {"system": "ova-sensitized, ova-challenged mice", "assay": "Prevention of airway hyperreactivity (Penh, methacholine) in mouse ovalbumin sensitization model", "assay_type": "in vivo"}, "[10]": {"assay": "Compound plasma concentrations in unsensitized mice at 15 min post administration", "assay_type": "in vivo", "settings": "mouse, 15 μmol/kg; mean compound plasma concentration in mice at 15 minutes post oral administration; read-out: Mouse Oral PK"}, "[11]": {"biological_target": "T7, Akt3 human enzyme (Homo sapiens, UniProt Q9Y243)", "T7 construct": "purchased Upstate Chemicon 14-502", "T7 sequence (Q9Y243 whole entry)": "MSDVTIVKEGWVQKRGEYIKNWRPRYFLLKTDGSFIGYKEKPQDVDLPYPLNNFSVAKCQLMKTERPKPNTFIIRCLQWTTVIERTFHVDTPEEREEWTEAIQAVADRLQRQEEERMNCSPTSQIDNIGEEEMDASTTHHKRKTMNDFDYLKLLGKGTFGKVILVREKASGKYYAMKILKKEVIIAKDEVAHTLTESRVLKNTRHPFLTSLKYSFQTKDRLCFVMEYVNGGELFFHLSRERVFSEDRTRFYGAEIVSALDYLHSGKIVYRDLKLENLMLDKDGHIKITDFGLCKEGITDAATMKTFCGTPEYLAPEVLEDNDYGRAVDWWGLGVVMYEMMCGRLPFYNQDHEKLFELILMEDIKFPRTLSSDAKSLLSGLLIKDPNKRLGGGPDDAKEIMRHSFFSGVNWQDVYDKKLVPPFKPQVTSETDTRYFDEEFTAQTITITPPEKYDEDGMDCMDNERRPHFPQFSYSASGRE", "assay": "Akt3 inhibition assay (IMAP FP)", "assay_type": "biochemical"}}, "note": "Like-named read-outs stand apart in the source and are kept apart here.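 Throughout, for Akt3 Ki, Avg: kinase reaction run 60 min at room temperature after 30 µM ATP start, phosphorylated substrate captured on IMAP beads and read as fluorescence polarization (mP).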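 Throughout, for Akt3 Ki: kinase reaction run 60 min at room temperature after 30 µM ATP start, phosphorylated substrate captured on IMAP beads and read as fluorescence polarization (mP).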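 Throughout, for ROCK2 Ki, Avg: kinase reaction started with 10 µM ATP and run 60 min at room temperature, then phosphorylated substrate captured on IMAP beads for 30 min and fluorescence polarization read in mP.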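 Throughout, for ROCK2 Ki: kinase reaction started with 10 µM ATP and run 60 min at room temperature, then phosphorylated substrate captured on IMAP beads for 30 min and fluorescence polarization read in mP.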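 Throughout, for p70S6K Ki, Avg: kinase reaction run at room temperature, phosphorylated substrate captured on IMAP beads and read as fluorescence polarization in mP, IC50 then converted to Ki.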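 Throughout, for p70S6K Ki: kinase reaction run at room temperature, phosphorylated substrate captured on IMAP beads and read as fluorescence polarization in mP, IC50 then converted to Ki.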", "data": [{"compound": "NC(=O)Cn1ccc2cc(CN3CC[C@@H](Nc4cccc5cnccc45)C3)ccc21", "note": "[Compound 2.059, (R)-2-(5-((3-(isoquinolin-5-ylamino)pyrrolidin-1-yl)methyl)-1H-indol-1-yl)acetamide]", "values": [{"measurement": "activity at 1 µM", "setting": "[1]; 1 μM test compound, read-out: Mnk2 Percent inhibition, 1 μM", "result": 49, "unit": "%"}, {"measurement": "activity at 10 µM", "setting": "[1]; 10 μM test compound, read-out: Mnk2 Percent inhibition, 10 μM", "result": 12, "unit": "%"}, {"measurement": "activity at 1 µM", "setting": "[2]; 1 μM test compound, read-out: IRAK1 Percent inhibition, 1 μM", "result": 87, "unit": "%"}, {"measurement": "activity at 10 µM", "setting": "[2]; 10 μM test compound, read-out: IRAK1 Percent inhibition, 10 μM", "result": 30, "unit": "%"}, {"measurement": "Ki", "setting": "[3]; Avg, 10 μM ATP", "result": 3.9, "unit": "nM"}, {"measurement": "Ki", "setting": "[3]; average Ki", "result": 3.9, "unit": "nM"}, {"measurement": "GCK Percent inhibition, 1 μM", "setting": "[4]", "result": 75, "unit": "%"}, {"measurement": "activity at 10 µM", "setting": "[4]; 10 μM test compound, 10 μM ATP, read-out: GCK Percent inhibition, 10 μM", "result": 34, "unit": "%"}, {"measurement": "Ki", "setting": "[5]; 30 μM ATP, Ki=IC50/(1+([ATP Challenge]/EC50 ATP)), read-out: p70S6K Ki, Avg", "result": 208, "unit": "nM"}, {"measurement": "Ki", "setting": "[5]; average Ki, read-out: p70S6K Ki", "result": 208, "unit": "nM"}, {"measurement": "IC50", "setting": "[6]; read-out: IC50 for inhibition of IL-1β secretion", "result": "169 ± 13", "unit": "nM"}, {"measurement": "IC50", "setting": "[6]; read-out: IC50 for inhibition of IL-9 secretion", "result": "269 ± 28.1", "unit": "nM"}, {"measurement": "IC50", "setting": "[6]; read-out: IC50 for inhibition of TNF-α secretion", "result": "207 ± 17", "unit": "nM"}, {"measurement": "IL-6, %", "setting": "[6]; average percent of stimulated IL-6 secretion from human monocytes at 10 μM of test compound", "result": 0.0, "unit": "%"}, {"measurement": "IL-1β levels in BALF from LPS-challenged mice", "setting": "[7]", "result": "reduction"}, {"measurement": "Ki", "setting": "[8]; 10 μM ATP, read-out: ROCK2 Ki, Avg", "result": 2.7, "unit": "nM"}, {"measurement": "Ki", "setting": "[8]; average Ki, read-out: ROCK2 Ki", "result": 2.7, "unit": "nM"}, {"measurement": "log10AUC (Penh)", "setting": "[9]; 0.5 μmol/kg/intratracheal, days 27 to 31", "result": 1.9979}, {"measurement": "airway hyperreactivity", "setting": "[9]; intratracheal once a day during days 27 to 31", "result": "prevention of airway hyperreactivity"}, {"measurement": "concentration at 15 min", "setting": "[10]", "result": 90, "unit": "nM"}, {"measurement": "Ki", "setting": "[11]; 30 μM ATP, Ki=IC50/(1+([ATP Challenge]/EC50 ATP)), read-out: Akt3 Ki, Avg", "result": 120, "unit": "nM"}, {"measurement": "Ki", "setting": "[11]; average Ki, read-out: Akt3 Ki", "result": 120, "unit": "nM"}]}]}
